The structures appear in SMILES notation.

Results on three compounds are retold here after patent US10688189B1, “Modulated guanidine-containing polymers or nanoparticles” (THE FLORIDA INTERNATIONAL BOARD OF TRUSTEES, priority 2017, dated 2020).

The target in one data set is T1, CFTR (Homo sapiens, UniProt P13569).
T1 construct: CFTR is located at the apical side (mucosal) of the airway epithelium; endogenous in cells; host or cells: primary NHBE cells, re-differentiated 21 days at the air-liquid interface
T1 sequence (P13569 whole entry): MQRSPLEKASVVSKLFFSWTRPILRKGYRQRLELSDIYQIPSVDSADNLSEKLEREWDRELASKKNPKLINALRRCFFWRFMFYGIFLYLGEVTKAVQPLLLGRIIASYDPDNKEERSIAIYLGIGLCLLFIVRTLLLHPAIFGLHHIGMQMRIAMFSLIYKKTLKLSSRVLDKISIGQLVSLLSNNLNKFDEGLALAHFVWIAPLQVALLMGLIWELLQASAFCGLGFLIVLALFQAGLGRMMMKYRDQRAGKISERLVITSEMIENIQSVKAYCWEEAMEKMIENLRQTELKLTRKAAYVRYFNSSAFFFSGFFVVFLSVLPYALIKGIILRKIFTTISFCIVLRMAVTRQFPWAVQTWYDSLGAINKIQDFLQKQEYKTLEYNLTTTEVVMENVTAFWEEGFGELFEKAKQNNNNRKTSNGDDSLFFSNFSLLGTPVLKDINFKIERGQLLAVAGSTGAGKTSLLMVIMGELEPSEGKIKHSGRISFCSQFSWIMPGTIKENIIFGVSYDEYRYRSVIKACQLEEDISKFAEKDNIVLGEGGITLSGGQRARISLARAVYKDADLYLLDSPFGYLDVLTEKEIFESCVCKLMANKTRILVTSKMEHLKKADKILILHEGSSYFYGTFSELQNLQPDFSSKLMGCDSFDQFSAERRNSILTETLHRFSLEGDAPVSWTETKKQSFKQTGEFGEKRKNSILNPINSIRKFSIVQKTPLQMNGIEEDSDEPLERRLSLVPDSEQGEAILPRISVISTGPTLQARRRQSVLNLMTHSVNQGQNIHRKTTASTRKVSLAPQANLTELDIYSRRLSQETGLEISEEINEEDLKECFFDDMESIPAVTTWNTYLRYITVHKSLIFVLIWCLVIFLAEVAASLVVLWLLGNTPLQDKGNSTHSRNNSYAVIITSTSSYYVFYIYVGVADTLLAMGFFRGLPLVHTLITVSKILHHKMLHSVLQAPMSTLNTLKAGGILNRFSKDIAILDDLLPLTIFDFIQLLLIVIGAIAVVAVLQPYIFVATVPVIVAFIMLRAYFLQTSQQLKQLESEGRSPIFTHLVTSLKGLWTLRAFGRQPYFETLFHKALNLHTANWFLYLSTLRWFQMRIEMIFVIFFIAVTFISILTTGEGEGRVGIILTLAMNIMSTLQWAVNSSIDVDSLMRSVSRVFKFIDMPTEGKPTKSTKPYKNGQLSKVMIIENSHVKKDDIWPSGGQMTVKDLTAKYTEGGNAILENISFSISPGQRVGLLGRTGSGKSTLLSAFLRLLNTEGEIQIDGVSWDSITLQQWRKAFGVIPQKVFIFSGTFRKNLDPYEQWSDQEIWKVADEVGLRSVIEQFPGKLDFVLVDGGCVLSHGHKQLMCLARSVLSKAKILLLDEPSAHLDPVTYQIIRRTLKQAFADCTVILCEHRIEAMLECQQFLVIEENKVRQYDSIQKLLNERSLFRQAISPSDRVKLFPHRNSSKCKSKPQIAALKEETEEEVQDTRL
Briefly: Ussing chamber apical CFTR activity in NHBE cells. The format is cell-based. The note with it: FIG. 12. From the text:
Ussing chamber electrophysiology was used to confirm re-differentiation and polarization as per: Unwalla et al., Am. J. Respir. Cell. Mol. Biol. 2015, 52 (1), 65-74; and Chinnapaiyan et al., Sci Rep. 2018, 8(1), 7984. CFTR is located at the apical side (mucosal) of the airway epithelium. Briefly, NHBE cultures were re-differentiated at the air-liquid interface. Following re-differentiation for 21 days, the snap wells were removed from supports and mounted in Ussing chambers. The short circuit current was measured and allowed to stabilize followed by addition of amiloride (10 μM) added apically to eliminate epithelial sodium channel (ENaC) influences. CFTR activation was affected by addition of albuterol (10 μM) and change in short circuit current (ΔISC) was determined. CFTR specificity was confirmed by addition of CFTR inhibitor CFTRinh172 (20 μM) and the decrease in ΔISC was recorded.

The conditions of data set [1]: cited from earlier work.

Regarding `O=C(O)c1ccc(/C=C2\SC(=S)N(c3cccc(C(F)(F)F)c3)C2=O)cc1` [CFIRinh172], the “short circuit current after CFTR inhibitor” value on CFTR (20 μM after albuterol) was “decreased current”.

In the case of `N=C(N)N` [Guanidine], the “pKa value of protonated counterpart” value in data set [1] is listed as 12.48.

As to `CC(C)(C)NCC(O)c1ccc(O)c(CO)c1` (stereo not drawn) [albuterol], at CFTR (albuterol 10 μM after amiloride), the “short circuit current on CFTR activation” value is recorded as “sharp current increase occurs immediately”.
